These results are taken from patent publication US8119624B2, “Fused phenyl amido heterocyclic compounds” (Pfizer Inc., priority 2006, dated 2012).

The target in this test is T1, Full-length glucokinase (beta cell isoform) (Homo sapiens, UniProt P35557).
T1 construct: Full-length glucokinase (beta cell isoform) was His-tagged at N-terminus; His tag (N); made in house
T1 sequence (P35557 1-465): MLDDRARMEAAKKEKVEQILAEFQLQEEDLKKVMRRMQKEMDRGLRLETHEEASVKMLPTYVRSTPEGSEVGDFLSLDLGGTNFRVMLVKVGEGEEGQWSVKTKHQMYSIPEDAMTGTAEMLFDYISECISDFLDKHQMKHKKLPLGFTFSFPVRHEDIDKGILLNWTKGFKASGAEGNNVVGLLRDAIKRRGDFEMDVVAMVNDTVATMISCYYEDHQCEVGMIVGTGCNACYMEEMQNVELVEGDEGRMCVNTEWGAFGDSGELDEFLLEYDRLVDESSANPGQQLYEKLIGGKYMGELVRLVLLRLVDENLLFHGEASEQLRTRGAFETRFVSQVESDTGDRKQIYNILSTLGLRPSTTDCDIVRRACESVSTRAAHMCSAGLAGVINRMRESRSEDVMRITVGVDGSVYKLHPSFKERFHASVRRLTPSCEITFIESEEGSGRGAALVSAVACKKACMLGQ
Put plainly: Glucokinase biochemical assay (PK/LDH-coupled, NADH depletion at 340 nm): % activation, EC50, % max activation. As to conditions: 5 mM glucose; for activation at 10 µM: read-out: % Activation at 10 uM; for EC50: read-out: EC50; for Emax: fitted maximum activation, read-out: % Max Activation. In outline:
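Activation expressed as (Va/Vo−1)×100, where initial rates with and without compound come from NADH depletion at 340 nm over 200–900 s. Enzyme is His-tagged human beta-cell GK, full length, run at room temperature in HEPES buffer with 1 mM ATP and 5 mM glucose. DMSO 1%.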

Where [1] appears, read: 10 uM compound, % Activation=(Va/Vo−1)×100.

Read-outs that look alike come from different tables or passages of the source.

As a reminder, the EC50 is the concentration needed to bring the measured effect to its halfway point.

`Cn1ccc(NC(=O)c2cc(Oc3ccc(S(=O)(=O)C4CC4)cc3)c3c(c2)OC(C)(C)C3)n1` [Example 129, 4-(4-Cyclopropanesulfonyl-phenoxy)-2,2-dimethyl-2,3-dihydro-benzofuran-6-carboxylic acid (1-methyl-1H-pyrazol-3-yl)-amide]: the Emax worked out at 160%. Besides, under setting [1], the activation at 10 µM was determined as 185%. For the same molecule, the EC50 (GK activation) turned out to be 89 nM.
The corresponding values for `Cc1cc2c(Oc3ccc(S(=O)(=O)N4CCC4)cc3)cc(C(=O)Nc3cnn(C)n3)cc2o1` [Example 298, 4-(4-(Azetidin-1-ylsulfonyl)phenoxy)-2-methyl-N-(2-methyl-2H-1,2,3-triazol-4-yl)benzofuran-6-carboxamide] are 132%, 113% and 210 nM.
`CCn1ncc(NC(=O)c2cc(Oc3ccc(S(C)(=O)=O)cc3)c3c(c2)OC(C)(C)C3)n1` [Example 29, 4-(4-Methanesulfonyl-phenoxy)-2,2-dimethyl-2,3-dihydro-benzofuran-6-carboxylic acid(2-ethyl-2H-[1,2,3]triazol-4-yl)-amide]: the Emax was determined as 255%. Moreover, the activation at 10 µM under setting [1] is 284%. In addition, the EC50 (GK activation) is 250 nM.
Turning to `Cc1ccc(NC(=O)c2cc(Oc3ccc(S(C)(=O)=O)cc3)c3c(c2)C(=O)N(CC(C)C)C3)nc1` [Example 381, 2-Isobutyl-N-(5-methylpyridin-2-yl)-7-(4-(methylsulfonyl)-phenoxy)-3-oxoisoindoline-5-carboxamide], the EC50 (1 mM ATP, room temperature) came to 3000 nM. Further, the activation at 10 µM (compound at 10 uM, 1 mM ATP, room temperature) was found to be 81%. Moreover, the Emax (1 mM ATP) turned out to be 132%.
For `CN(C)C(=O)c1ccc(Oc2cc(C(=O)Nc3ccon3)cc3c2CC(C)(C)O3)cc1F` [Example 144, 4-(4-Dimethylcarbamoyl-3-fluoro-phenoxy)-2,2-dimethyl-2,3-dihydro-benzofuran-6-carboxylic acid isoxazol-3-ylamide], the Emax was found to be 100%. Also, the activation at 10 µM under setting [1] was 103%. For the same molecule, for the setting “GK activation”, the EC50 amounted to 269 nM.
For the molecule `CC(C)COc1cc(C(=O)Nc2ccc(C(=O)O)cn2)cc2c1CC(C)(C)O2` [Example 14, 6-[(4-Isobutoxy-2,2-dimethyl-2,3-dihydro-benzofuran-6-carbonyl)-amino]-nicotinic acid], the Emax is 115%. In addition, the activation at 10 µM under setting [1] is 167%. The 50% effective concentration (EC50) (GK activation) was found to be 1300 nM.
The corresponding values for `Cc1cc2c(Oc3ccc(S(C)(=O)=O)cc3)cc(C(=O)Nc3cnc(N(C)C)cn3)cc2o1` [Example 262, N-(5-(Dimethylamino)pyrazin-2-yl)-2-methyl-4-(4-(methylsulfonyl)-phenoxy)-benzofuran-6-carboxamide] are 137%, 151% and 780 nM.
`CN(C)C(=O)c1ccc(Oc2cc(C(=O)Nc3cc[nH]n3)cc3c2CC(C)(C)O3)cc1` [Example 152, 4-(4-Dimethylcarbamoyl-phenoxy)-2,2-dimethyl-2,3-dihydro-benzofuran-6-carboxylic acid (1H-pyrazol-3-yl)-amide]: the Emax was determined as 98%. Further, the activation at 10 µM under setting [1] came to 90.7%. Moreover, the EC50 (GK activation) was determined as 850 nM.
The corresponding values for `Cc1ccc(NC(=O)c2cc(Oc3ccc(S(C)(=O)=O)cc3)c3c(c2)OC(C)C3)nc1` (stereo not drawn) [Example 10, 4-(4-Methanesulfonyl-phenoxy)-2-methyl-2,3-dihydro-benzofuran-6-carboxylic acid(5-methyl-pyridin-2-yl)-amide] are 122%, 98.7% and 1100 nM.
